Test results from ChEMBL document CHEMBL1155663, “A new major triterpene saponin from the roots of Cucurbita foetidissima” (J Nat Prod, 2000).
The source made the active and inactive calls. No cut-off for these calls is given here.

System: HT-29
Experiment: Potentiation of cisplatin-induced cytotoxicity against human HT29 cells
Format: functional, cell-based

In the case of `C[C@@H]1O[C@@H](O[C@@H]2[C@@H](OC(=O)[C@]34CCC(C)(C)C[C@@H]3C3=CC[C@@H]5[C@@]6(C)CC[C@H](O[C@@H]7O[C@H](C(=O)O)[C@@H](O)[C@H](O)[C@H]7O)C(C)(C)[C@@H]6CC[C@@]5(C)[C@]3(C)C[C@H]4O)OC[C@@H](O)[C@H]2O)[C@H](O)[C@H](O[C@H]2OC[C@H](O)[C@@H](O[C@H]3O[C@@H](CO)[C@H](O)[C@@H](O)[C@@H]3O)[C@@H]2O)[C@H]1O[C@@H]1OC[C@@H](O)[C@H](O)[C@H]1O`, the Activity is reported as “inactive”.
